Laboratory results: US12358914B2, “Preparation method and use of pyrazole compound containing 1-(3,4-dimethoxyphenyl)-β-carboline unit” (NANTONG UNIVERSITY, priority 2020, dated 2025)
pIC50: −log10 of the molar value.

system: Human gastric cancer cell HGC-27; assay: In-vitro anti-tumor activity test by MTT method; type: cell-based; conditions: HGC-27 cells, 24 hours incubation with compound, OD 570 nm
Description: Anti-Tumor Activity Test of Compounds
The in-vitro anti-tumor activity of the compounds was tested by tetramethylazoazole colorimetric (MTT) method. Human gastric cancer cell HGC-27 was used as a test cell. 5-fluorouracil (5-FU) was selected as the positive control drug. Human gastric cancer cell HGC-27 in the exponential growth phase was made into a cell suspension with 4×10^3 cells/mL, inoculated in a 96-well plate, and cultured in a CO2 incubator for 36 hours. The test solution (10 μL) of the compound to be tested was added into the test wells, with parallel wells being set for each concentration. The same amount of DMSO was used as a blank control. The plate was incubated in a CO2 incubator for 24 hours, then the supernatant was discarded, and 10 μL of 5% MTT was added to each well. Then the plate was incubated for 4 hours, and the supernatant was sucked and discarded. Subsequently, 100 μL of DMSO was added to each well, and the plate was shaken in a shaker for 20 minutes. The OD value was measured with a microplate reader at a wavelength of 570 nm, and the cell inhibition rate was calculated. Cell inhibition rate=(OD value of negative control group−OD value of tested substance group)/OD value of negative control group×100%. The IC50 value of each compound was calculated by the probability unit weighted regression method.

Compound	pIC50
O=c1[nH]cc(F)c(=O)[nH]1 [Compound 5-FU, 5-fluorouracil, reference compound]	4.47
COc1ccc(Oc2c(/C=N/NC(=O)c3cc4c([nH]c5ccccc54)c(-c4ccc(OC)c(OC)c4)n3)c(C)nn2C)cc1 [Ib]	5.72
COc1ccc(-c2nc(C(=O)N/N=C/c3c(C)nn(C)c3Oc3ccc(F)cc3F)cc3c2[nH]c2ccccc23)cc1OC [Id]	5.90

Other lines, results leading:

pIC50	Compound
5.00	COc1ccc(-c2nc(C(=O)N/N=C/c3c(C)nn(C)c3Oc3ccc(Cl)cc3)cc3c2[nH]c2ccccc23)cc1OC [Ia]
5.15	COc1ccc(-c2nc(C(=O)N/N=C/c3c(C)nn(C)c3Oc3ccc(F)cc3)cc3c2[nH]c2ccccc23)cc1OC [Ic]
